Measurements reported in publication PMC5303260, “Efficacy, safety and pharmacokinetics of simeprevir and TMC647055/ritonavir with or without ribavirin and JNJ-56914845 in HCV genotype 1 infection” (BMC Gastroenterology, 2017).
Read-outs that look alike come from different tables or passages of the source.

What was measured:
[1] = parameters: species or system human; conditions: in vivo
Experimental: Plasma pharmacokinetic samples for simeprevir, TMC647055, ritonavir and JNJ-56914845 were collected over 24 h (pre-dose, 1, 2, 3, 4, 5, 6, 8, 10, 12 and 24 h post-dose) at Week 4 from all patients and assayed using validated liquid chromatography-tandem mass spectrometry methods with lower limits of quantification for simeprevir, TMC647055, ritonavir and JNJ-56914845 of 5.0, 5.0, 2.0 and 1.0 ng/mL, respectively (data on file).
No formal sample size calculations were performed as this was a proof-of-concept study. For each efficacy endpoint, the proportion of patients was summarised descriptively together with a 95% confidence interval by treatment group and population. The change in log10 HCV RNA from baseline at all time points was calculated using descriptive statistics. Pharmacokinetic parameters were calculated using non-compartmental analysis (Phoenix WinNonlin® 6.2.1). All safety and tolerability data were summarised descriptively.

cytochrome P450 (CYP) 3A = conditions: cited from earlier work
[2] = test system: organic anion transporting polypeptide (OATP) 1B1/3; conditions: cited from earlier work
HCV NS3/4A = experiment: Population-based sequencing at time of failure, NS3/4A region; parameters: species or system hepatitis C virus
P-glycoprotein = conditions: cited from earlier work
[3] = cited from earlier work; for change in plasma concentrations on co-administration with JNJ-56914845: healthy volunteers, not considered clinically relevant
HCV GT1, 3, 4, 5 and 6 = test system: HCV GT1, 3, 4, 5 and 6; parameters: method as in PMID 24144360; conditions: cited from earlier work
HCV NS5B = experiment: Population-based sequencing at time of failure, NS5B region; parameters: species or system hepatitis C virus; conditions: patients with virologic failure
[4] = test system: HCV replicon with NS5B NNI-1 pocket polymorphisms; experiment: In vitro susceptibility of site-directed mutant replicons (baseline NS5B polymorphisms); assay type: cell-based, hepatitis C virus; conditions: NS5B polymorphisms observed at baseline (positions 37, 392, 424, 425, 494, 499) with site-directed mutagenesis data
Excerpt: NS5B polymorphisms were detected at baseline at the non-nucleoside inhibitor (NNI)-1 binding pocket positions 37, 392, 424, 425, 494 and/or 499 across all panels.

HCV NS5A [5] = conditions: all patients with virologic failure in Panel 4
[6] = test system: breast cancer resistance protein; conditions: cited from earlier work
HCV GT1, 4, 5 and 6a/6b = test system: HCV GT1, 4, 5 and 6a/6b; parameters: method as in PMID 24107072, PMID 24126581; conditions: cited from earlier work
HCV NS5A [7] = test system: HCV NS5A; parameters: method as in PMID 24126581; conditions: L31M and Y93C (in combination with M28V), GT1a; cited from earlier work

In the case of CC(C)c1nc(CN(C)C(=O)N[C@H](C(=O)N[C@@H](Cc2ccccc2)C[C@H](O)[C@H](Cc2ccccc2)NC(=O)OCc2cncs2)C(C)C)cs1 [ritonavir], the “differences in pharmacokinetics based on ribavirin use” value (“differences in pharmacokinetics based” below) [1] is reported as “No differences”.

For COc1ccc2c(O[C@@H]3C[C@H]4C(=O)N[C@]5(C(=O)NS(=O)(=O)C6CC6)C[C@H]5/C=C\CCCCN(C)C(=O)[C@@H]4C3)cc(-c3nc(C(C)C)cs3)nc2c1C [simeprevir], the “CYP3A substrate / inhibitor status” value (cytochrome P450 (CYP) 3A) is listed as “substrate and mild inhibitor (intestinal only)”, the “differences in pharmacokinetics based” value [1] is listed as “No differences” and the “exposure compared with historical data for simeprevir 150 mg once daily” value [1] is listed as “within the range observed in historical data”. For the same molecule, the OATP1B1/3 inhibition [2] was “inhibits”, the “emerging NS3 mutations at time of failure” value (HCV NS3/4A; GT1a-infected patients with virologic failure (R155K alone or with Q80R; R155S)) was “NS3 position 155” and the “emerging NS3 mutation at time of failure” value (HCV NS3/4A; most GT1b-infected patients with virologic failure) was “NS3 position 168”. For the same molecule, the P-glycoprotein inhibition (P-glycoprotein) was “inhibits” and the “change in plasma concentrations on co-administration with JNJ-56914845” value [3] was “small increases”.

In the case of COc1ccc2c(c1)C=C1Cn3c-2c(C2CCCCC2)c2ccc(cc23)C(=O)NS(=O)(=O)N(C)CCOCCN(C)C1=O [TMC647055], the “differences in pharmacokinetics based” value [1] is listed as “No differences”, the “increase in exposure with dose” value [1] is listed as “more than dose-proportional increase” and the “in vitro antiviral activity” value (HCV GT1, 3, 4, 5 and 6) is listed as “in vitro antiviral activity against HCV GT1, 3, 4, 5 and 6”. The “resistance-associated variants (RAVs) observed at failure” value (HCV NS5B) was “NS5B position 495 (mainly P495L)”, the “change in plasma concentrations on co-administration with JNJ-56914845” value [3] was “small increases” and the “fold change in 50 % effective concentration compared to wild-type replicon” value [4] was under 2.

For COC(=O)N[C@H](C(=O)N1CCC[C@H]1c1ncc(-c2ccc(-c3ccc(-c4cnc([C@@H]5CC6(CN5C(=O)[C@@H](NC(=O)OC)C(C)C)OCCO6)[nH]4)cc3)cc2)[nH]1)C(C)C [JNJ-56914845], the CYP3A substrate status (cytochrome P450 (CYP) 3A) is given as “substrate”, the “emerging RAVs at time of failure” value (HCV NS5A [5]) is given as “NS5A positions 30 and/or 31” and the “breast cancer resistance protein inhibition” value [6] is given as “inhibits”. For the same molecule, the OATP1B1/3 inhibition ([2]; in vitro, ref data on file) was “inhibits”, the “in vitro antiviral activity” value (HCV GT1, 4, 5 and 6a/6b) was “in vitro antiviral activity against HCV GT1, 4, 5 and 6a/6b” and the “baseline NS5A polymorphisms and in vitro resistance” value (HCV NS5A [7]) was “associated with in vitro resistance”. For the same molecule, the P-glycoprotein inhibition (P-glycoprotein) was “inhibits”, the P-glycoprotein substrate status (P-glycoprotein) was “substrate” and the “increase in exposure (AUC0–24h) on co-administration of simeprevir” value ([3]; human, in vivo) was 2.6 fold.
